According to patent publication US20250066778A1, “METHODS AND MATERIALS FOR TREATING HEART ATTACK” (THE JOHNS HOPKINS UNIVERSITY, priority 2022, published 2025):

Key:
[1] = system: Per1/Per2 DKO neonatal mouse cardiomyocytes; assay: Gene expression (qPCR) in cultured cardiomyocytes from Per1/Per2 DKO neonatal mouse hearts after treatment; format: cell-based; conditions: for expression of cell cycle / mitosis regulating genes: norepinephrine 1 μM (FIG. 4C); for Wee1 gene expression: norepinephrine 1 μM (FIG. 5E)
Text: Sm22a-Cre (017491) and C57BL/6 mice were obtained from Jackson Lab. NGF +/− mice, Per1/Per2 DKO mice, and Mesp1-Cre mice were as described elsewhere (see, e.g., Wheeler et al., Neuron, 82: 587-602 (2014); Muller et al., J. Neurosci., 32: 14885-14898 (2012); and Saga et al., Development, 126: 3437-3447 (1999)). The animals were randomly allocated to experimental groups and both male and female mice were equally used in all experimental assays. All mouse hearts and cardiomyocytes were harvested at random times during the day unless specified otherwise. Cardiomyocytes were isolated from P0 or P1 mouse hearts using a neonatal cardiomyocyte isolation kit (Miltenyi Biotec) based on manufacturer's instructions. Before plating, cardiomyocytes were filtered through a 70 μm mesh and single cells were cultured in 24-well plates coated with gelatin. The cells were first maintained in 5% fetal bovine serum (FBS) in DMEM with Pen/Strep antibiotics for 24 hours and subsequently treated for at least 2 hours with 50% horse serum in DMEM and then for 2 days with 5% FBS in DMEM. Cardiomyocytes were treated with Norepinephrine (1 μM) (Sigma) or Nerve Growth Factor (NGF, 20 ng/ml) (PeproTech) as indicated. RNA was isolated from mouse hearts and cultured cardiomyocytes using Trizol, and cDNA was generated using the high-capacity cDNA reverse transcription kit (Applied Biosystems). qPCR reactions were performed using the Sybr Select qPCR mix (Thermo Fisher) with indicated primers. Gene expression levels were normalized to Gapdh or Rpl32.

[2] = system: wild type neonatal mouse cardiomyocytes (NMCMs); assay: Gene expression (qPCR) in cultured wild type neonatal mouse cardiomyocytes after treatment; format: cell-based; conditions: for expression of mitosis regulating genes / Wee1 gene expression / expression of clock (circadian) genes: wild type NMCMs; for expression of mitosis regulating genes: norepinephrine 1 μM (FIG. 4C); for Wee1 gene expression: norepinephrine 1 μM (FIG. 5E); for expression of clock (circadian) genes: reset with 50% serum, norepinephrine 1 μM, after 48 hrs of treatment (FIG. 4B)
Protocol: Cardiomyocytes were isolated from P0 or P1 mouse hearts using a neonatal cardiomyocyte isolation kit (Miltenyi Biotec) based on manufacturer's instructions. Before plating, cardiomyocytes were filtered through a 70 μm mesh and single cells were cultured in 24-well plates coated with gelatin. The cells were first maintained in 5% fetal bovine serum (FBS) in DMEM with Pen/Strep antibiotics for 24 hours and subsequently treated for at least 2 hours with 50% horse serum in DMEM and then for 2 days with 5% FBS in DMEM. Cardiomyocytes were treated with Norepinephrine (1 μM) (Sigma) or Nerve Growth Factor (NGF, 20 ng/ml) (PeproTech) as indicated.
RNA was isolated from mouse hearts and cultured cardiomyocytes using Trizol, and cDNA was generated using the high-capacity cDNA reverse transcription kit (Applied Biosystems). qPCR reactions were performed using the Sybr Select qPCR mix (Thermo Fisher) with indicated primers. Gene expression levels were normalized to Gapdh or Rpl32.

## NC[C@H](O)c1ccc(O)c(O)c1 [Norepinephrine]
[1]
  expression of cell cycle / mitosis regulating genes: failed to suppress mitosis regulating genes apart from Aurkb
  Wee1 gene expression: this effect was not observed in Per1/Per2 DKO cardiomyocytes
[1]; listed as norepinephrine
  expression of cell cycle / mitosis regulating genes: no significant effect on cell cycle genes apart from Aurkb
  Wee1 gene expression: this effect was not observed in the absence of Per1/Per2
[2]
  expression of mitosis regulating genes: decreased the expression of mitosis regulating genes
  Wee1 gene expression: induced Wee1 gene expression
  expression of clock (circadian) genes: induces the expression of circadian genes
[2]; listed as norepinephrine
  expression of mitosis regulating genes: suppressed mitosis genes
  Wee1 gene expression: induces Wee1 expression
  expression of clock (circadian) genes: induced Per1 and Per2 as well as Cryptochrome1 (Cry1) and Cry2 genes

## NGF: Nerve Growth Factor (PeproTech), used at 20 ng/ml on neonatal mouse cardiomyocytes
[2]; ex vivo treatment of NMCMs with NGF 20 ng/ml (FIG. 9E)
  cell cycle gene expression: did not affect cell cycle gene expression
